“And” between values parts separate entries of the source, which are not always exact repeats. Identical values can stand only once. “Also recorded” adds a separate entry of the source. Like-named read-outs stand apart in the source and are kept apart here.
Columns and labels:
[1] = pediatric patients with juvenile rheumatoid arthritis, cited from earlier work
[2] = cited from earlier work
[3] = tested on: patients with active rheumatoid arthritis; details: cited from earlier work; for patients achieving ACR20: 16 weeks, starting dose 15 mg per week; for time to achieve an ACR20 response: subgroup n=98; for ACR20 responders: subgroup ≥1 year since diagnosis with prior DMARDs or steroids (n=98)
[4] = tested on: patients with rheumatoid arthritis; details: 15 mg per week, cited from earlier work
[5] = tested on: patients with rheumatoid arthritis; details: after switching from intramuscular to oral; cited from earlier work
[6] = tested on: rheumatoid arthritis patients; details: cited from earlier work
[7] = Pharmacokinetics of methotrexate in plasma after subcutaneous injection with autoinjector or needle/syringe; details: for AUC(0-inf) / AUC(0-τ) / Tmax / T½ / AUC: plasma; for AUC(0-t): individual animals; for AUC: AUC(0-τ)
[8] = Autoinjector, Female, 12.5 mg SC, animals S5196028/S5195684/S5195757
[9] = Autoinjector, Male, 12.5 mg SC, animals S5196273/S5196559/S5196206
[10] = Syringe, Female, 12.5 mg SC, animals S5196028/S5195684/S5195757
[11] = Syringe, Male, 12.5 mg SC, animals S5196273/S5196559/S5196206

CN(Cc1cnc2nc(N)nc(N)c2n1)c1ccc(C(=O)N[C@@H](CCC(=O)O)C(=O)O)cc1 [Methotrexate, L-(+)-N-[p-[[(2,4-Diamino-6-pteridinyl)methyl]methylamino]-benzoyl]glutamic acid]
average mean serum concentration ([1]; about 1 hour): about 0.59 μM | average mean serum concentration ([1]; about 2 hours): about 0.44 μM | average mean serum concentration ([1]; about 3 hours): about 0.29 μM | peak serum concentrations and bioavailability, intramuscular versus subcutaneous ([2]; Brooks et al., 12.5 mg to 25 mg per week): similar | fall of total absorption after oral administration, maintenance versus starting dosage ([2]; Hamilton et al., start 7.5 mg per week, maintenance average 17 mg per week, 21 rheumatoid arthritis patients): about 13.5% | patients achieving ACR20 ([3]; oral): 77% | time to achieve an ACR20 response ([3]; oral): 6 weeks | ACR20 responders ([3]; oral): 63% | further ACR20 non-responders with positive ACR20 response ([3]; subcutaneous dosage increased from 15 mg to 20 mg): 23% | patients achieving ACR20 ([3]; subcutaneous): 85% | time to achieve an ACR20 response ([3]; subcutaneous): 4 weeks | ACR20 responders ([3]; subcutaneous): 89% | ACR20 non-responders with positive ACR20 response after switch ([3]; switched from 15 mg oral to 15 mg subcutaneous at 16 weeks): 30% | average DAS28 ([4]; after switch from oral to intramuscular administration): 5.2 | average DAS28 ([4]; before switch from oral to intramuscular administration): 5.6 | patients reporting nausea [5]: 48% | patients judged to have moderate or marked improvement ([6]; 10 mg to 15 mg intramuscular once a week, 78 patients): Eighty-two | patients who deteriorated after switching to oral methotrexate ([6]; improved after switching back to intramuscular): 10 of 48 patients | difference in exposure / PK parameters between males and females ([7]; 12.5 mg SC, both devices): no marked difference; also recorded: no marked sex-related differences | exposure with autoinjector compared to needle/syringe ([7]; 12.5 mg SC, male and female minipigs): very similar; also recorded: comparable | AUC(0-inf) [7, 8]: 1859 ng·mL·h | AUC(0-τ) [7, 8]: 1857 ng·mL·h | Tmax [7, 8]: 15 min | T½ [7, 8]: 237 min and 196 min | AUC(0-t) ([7]; Autoinjector, Female, Day 8): 2498 ng·h/mL and 1857 ng·h/mL | T½ ([7]; Autoinjector, Male, 12.5 mg SC, Mean): 115 min | Tmax ([7]; Autoinjector, Male, 12.5 mg SC, Median): 15 min | AUC(0-inf) [7, 9]: 1903 ng·mL·h and 1407 ng·mL·h | Tmax [7, 9]: 15 min | T½ [7, 9]: 120 min | AUC(0-t) ([7]; Needle/Syringe, Female, Day 1): 2378 ng·h/mL and 1831 ng·h/mL | Tmax ([7]; Syringe, Female, 12.5 mg SC, Median): 15 min | AUC(0-inf) [7, 10]: 2675 ng·mL·h and 1832 ng·mL·h | Tmax [7, 10]: 15 min | Tmax ([7]; Syringe, Male, 12.5 mg SC, Median): 15 min | T½ ([7]; Syringe, Male, 12.5 mg SC, animal S5196559): 115 min | AUC(0-τ) [7, 11]: 2464 ng·mL·h and 2016 ng·mL·h | Tmax [7, 11]: 15 min and 30 min | time at which maximal plasma concentrations were generally observed ([7]; both devices, first collection time point): 0.25 h | AUC(0-inf) ([7]; female, Gottingen, minipig, sc, 12.5 mg, AUC(0-inf), Autoinjector, 12.5 mg SC, Mean): 2510 ng·h/mL | AUC(0-inf) ([7]; female, Gottingen, minipig, sc, 12.5 mg, AUC(0-inf), Autoinjector, 12.5 mg SC, animals S5196028/S5195684/S5195757): 3170 ng·h/mL | AUC(0-inf) ([7]; female, Gottingen, minipig, sc, 12.5 mg, AUC(0-inf), Syringe, 12.5 mg SC, Mean): 2300 ng·h/mL | AUC(0-inf) ([7]; female, Gottingen, minipig, sc, 12.5 mg, AUC(0-inf), Syringe, 12.5 mg SC, animals S5196028/S5195684/S5195757): 2380 ng·h/mL | AUC ([7]; female, Gottingen, minipig, sc, 12.5 mg, Syringe, 12.5 mg SC, animals S5196028/S5195684/S5195757): 1830 ng·h/mL | AUC(0-inf) ([7]; male, Gottingen, minipig, sc, 12.5 mg, AUC(0-inf), Autoinjector, 12.5 mg SC, Mean): 1490 ng·h/mL | AUC(0-inf) ([7]; male, Gottingen, minipig, sc, 12.5 mg, AUC(0-inf), Autoinjector, 12.5 mg SC, animals S5196273/S5196559/S5196206): 1160 ng·h/mL | AUC(0-inf) ([7]; male, Gottingen, minipig, sc, 12.5 mg, AUC(0-inf), Syringe, 12.5 mg SC, animal S5196559): 2470 ng·h/mL | AUC ([7]; male, Gottingen, minipig, sc, 12.5 mg, Syringe, 12.5 mg SC, Mean): 1940 ng·h/mL | AUC ([7]; male, Gottingen, minipig, sc, 12.5 mg, Syringe, 12.5 mg SC, animals S5196273/S5196559/S5196206): 1320 ng·h/mL

Reference: US10555954B2, “Hazardous agent injection system” (Antares Pharma, Inc., priority 2009, dated 2020)
